From PubChem BioAssay (NCI)
Values joined by “and” are separate entries in the source; they are usually repeats but may differ in a detail not shown here. Identical values can stand only once.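 A five-concentration, 48-hour dose response in 96-well plates underlies each endpoint, interpolated linearly between surrounding concentrations. The concentration for 50% growth inhibition is given as GI50. TGI: total growth inhibition.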

What was measured:
Experiment in all cases: growth of human tumour cells (NCI), 48 h
[1] = test system: A549 NSCLC
[2] = test system: ACHN renal
[3] = test system: HCC-2998 colon
[4] = test system: HS 578T breast
[5] = test system: K-562 leukemia
[6] = test system: KM12 colon
[7] = test system: NCI-H226 lung
[8] = test system: SF-268 CNS
[9] = test system: SK-MEL-28 melanoma
[10] = test system: SK-MEL-5 melanoma

Compound	TGI [1] [µM]	TGI [2]	TGI [3]	TGI [4] [µM]	TGI [5]	TGI [6]	TGI [7]	TGI [8] [µM]	TGI [9]	TGI [10]	GI50 [1] [µM]	GI50 [2]	GI50 [3] [µM]	GI50 [4]	GI50 [5] [µM]	GI50 [6]	GI50 [7]	GI50 [8] [µM]	GI50 [9]	GI50 [10] [µM]
CC1=C(/C=C/C(C)=C/C=C/C(C)=C/C(=O)O)C(C)(C)CCC1	> 79.4	75.9 µM	66.8 µM	> 81	> 79.9 µM	60.2 µM	72.6 µM	> 75.1	> 82.2 µM	63.3 µM	–	–	–	–	–	–	–	–	–	–
CC(=O)O[C@@]1(C)[C@@H](C)C(=O)O[C@@H]2CCN3CC=C(COC(=O)[C@]1(C)O)[C@H]23	> 100	> 100 µM	> 100 µM	–	> 100 µM	> 100 µM	> 100 µM	> 100	> 100 µM	> 100 µM	–	–	–	–	–	–	–	–	–	–
CC(C(N)C(=O)NC(C(=O)O)C1OC(n2ccc(=O)[nH]c2=O)C(O)C1O)C(O)c1ccc(O)cn1 (stereo not drawn)	> 100	> 100 µM	> 100 µM	> 100	–	> 100 µM	–	> 100	> 100 µM	> 100 µM	–	–	–	–	–	–	–	–	–	–
OCCNc1nc(Nc2ccc(Cl)c(Cl)c2)nc2ccccc12	18	18.3 µM	6.85 µM	25.2	10.8 µM	16.2 µM	34.2 µM	20.8	20.7 µM	17.7 µM	4.2	4.8 µM	2.52	6.91 µM	3.09	4.19 µM	12.9 µM	6.78	6.38 µM	4.75
Cc1cccc2c1CCC21OC(=O)c2c1ccc1ccccc21 (stereo not drawn)	> 100	> 100 µM	> 100 µM	–	66.7 µM	> 100 µM	> 100 µM	> 100	> 100 µM	46 µM	–	–	–	–	–	–	–	–	–	–
CC(C)=CCC/C(C)=C\CCC1(C)OC(=O)C2CC21 (stereo not drawn)	–	> 100 µM and 59.8 µM	> 100 µM	> 100	48.4 µM and 40.5 µM	> 100 µM and 62.8 µM	> 100 µM and 42.6 µM	> 100	> 100 µM	> 100 µM	–	> 100 µM and 25.1 µM	–	> 100 µM and 36.5 µM	–	71.2 µM and 24.9 µM	48.4 µM and 18.8 µM	–	> 100 µM and 37.5 µM	–
NC1=NN(c2ccccc2)C(=O)C1C(=O)C(=O)Nc1nccs1 (stereo not drawn)	> 100	> 100 µM	> 100 µM	–	> 100 µM	> 100 µM	> 100 µM	> 100	> 100 µM	> 100 µM	–	–	–	–	–	–	–	–	–	–
CSc1snc2sc3c(Cl)nnnc3c12	33.9	23.3 µM	21.2 µM	–	5.73 µM	30 µM	–	33.2	23.2 µM	30.7 µM	–	–	–	–	–	–	–	–	–	–
COc1ccc2oc(C(=O)O)c3c2c1CCC3CCC(=O)O (stereo not drawn)	> 100	> 100 µM	> 100 µM	–	> 100 µM	> 100 µM	–	> 100	> 100 µM	> 100 µM	–	–	–	–	–	–	–	–	–	–
COc1ccc2c(c1)C(=O)/C(=C/c1ccc([N+](=O)[O-])o1)O2	> 22.8	2.02 µM	3.74 µM	> 26.8	–	3.11 µM	5.83 µM	4.02	3.22 µM	3.02 µM	2.68	0.758 µM	1.89	2.58 µM	–	1.65 µM	1.78 µM	1.85	1.69 µM	1.58
NS(=O)(=O)c1ccc(N(/C=C/C(=O)C(F)(F)F)Cc2ccc(Cl)cc2)cc1	> 100	78.1 µM	35.5 µM	> 100	> 100 µM	74.5 µM	–	> 100	> 100 µM	38 µM	27.7	31.7 µM	18.1	38.1 µM	38.9	22.7 µM	–	74.3	29.3 µM	19.2
Cn1c(N)nc(=O)c2c1N(C1OC(CO)C(O)C1O)CN2Cc1ccccc1 (stereo not drawn)	> 100	> 100 µM	> 100 µM	–	> 100 µM	> 100 µM	> 100 µM	> 100	–	> 100 µM	–	–	–	–	–	–	–	–	–	–
O=C1C2C(C(=O)N1c1ccccc1)C1([N+](=O)[O-])C=C3c4ccccc4N(C(=O)c4ccccc4)C32C2C(=O)N(c3ccccc3)C(=O)C21 (stereo not drawn)	> 100	> 100 µM	> 100 µM	–	> 100 µM	> 100 µM	–	> 100	> 100 µM	–	–	–	–	–	–	–	–	–	–	–
CCc1cc(CCC(=O)Nc2ccccc2[N+](=O)[O-])[nH]c(=S)n1	> 100	> 100 µM	–	–	> 100 µM	> 100 µM	> 100 µM	> 100	> 100 µM	–	–	–	–	–	–	–	–	–	–	–
CCCCCCCCCNC(=O)/C=C/c1ccc(O)c(O)c1	> 100	21.6 µM	31.4 µM	12.9	–	23.6 µM	25.5 µM	31.9	> 100 µM	10.8 µM	33.3	6.96 µM	16	0.451 µM	–	9.02 µM	10.4 µM	10.9	19.7 µM	1.34
COC(=O)C12OCC34C(CC5C(C)C6=CC(=O)OC6=CC5(C)C3C(O)C1O)OC(=O)C(O)C24 (stereo not drawn)	23.2	17.1 µM	0.347 µM and 0.676 µM	–	6.94 µM	12.5 µM	–	3.34	0.933 µM and 2.29 µM	0.255 µM and 2.31 µM	0.415	0.486 µM	0.075	–	0.0468	0.331 µM	0.0875 µM	0.287	0.0899 µM	0.373
C=C(C(=C)N1N=NC2C3CCC(C3)C21)N1N=NC2C3CCC(C3)C21 (stereo not drawn)	> 100	> 100 µM	> 100 µM	–	> 100 µM	> 100 µM	–	> 100	> 100 µM	> 100 µM	–	–	–	–	–	–	–	–	–	–
O=C(N/N=C1\C(=O)N(c2nccs2)C(=O)C(=O)C1c1nc2ccccc2s1)c1ccccc1O (stereo not drawn)	> 100	> 100 µM	> 100 µM	–	> 100 µM	> 100 µM	> 100 µM	> 100	> 100 µM	> 100 µM	–	–	–	–	–	–	–	–	–	–
CC1(C)NCCC[C@]2(C)[C@H]3CC[C@@H]4[C@H]5[C@H](C(=O)/C=C/c6ccccn6)CC[C@]5(CO)CC[C@@]4(C)[C@]3(C)CC[C@@H]12	11.2	13.6 µM	–	23.6	> 100 µM	4.27 µM	20.7 µM	31.2	15.7 µM	4.07 µM	2.88	3.58 µM	–	4.39 µM	2.19	2.07 µM	4.24 µM	11.2	3.75 µM	2
